# Where “and” joins values, the source holds several entries; their conditions need not be identical. Equal entries are not always repeated. After the bases stand the sugars from the 5' end (letter, count) and the backbone: PS all phosphorothioate, else s phosphorothioate and o phosphodiester by linkage. Methylation of C is not given here. e = 2'-O-(2-methoxyethyl) (MOE); k = constrained ethyl (cEt); d = 2'-deoxy (DNA)
# Biological target: IRF4
# Settings: ASO
sequence,measurement,setting,value
"CTTCTTCTTTATGCGA (sugars k3 d10 k3, PS)",target mRNA inhibition,"SK-MEL-28, 4 µM",66%
"TGTGTATTACTCTTAG (sugars kdddddddddkekeke, PS)",target mRNA inhibition,"MM.1R, 1 µM",32% and 52%
"TTATATACTGGTTGGT (sugars kkddddddddddkeke, PS)",target mRNA inhibition,"MM.1R, 1 µM",47%
"ACCGGTAGAGTGAGAT (sugars k3 d10 k3, PS)",target mRNA inhibition,"MM.1R, 1 µM",16% and 2%
"CGTCATGGGACATTGG (sugars k3 d10 k3, PS)",target mRNA inhibition,"SK-MEL-28, 4 µM",56%
"GTTGGCTGGTCTTTGT (sugars kddddddddddkekek, PS)",target mRNA inhibition,"MM.1R, 1 µM",23%
"AGATGCGGAGGTTCCT (sugars k3 d10 k3, PS)",target mRNA inhibition,"MM.1R, 1 µM",32%
"ATCAGAAATCACGAGG (sugars k3 d10 k3, PS)",target mRNA inhibition,"MM.1R, 0.0625 µM",2%
same,target mRNA inhibition,"MM.1R, 0.074 µM",-9%
same,target mRNA inhibition,"MM.1R, 0.222 µM",-12%
same,target mRNA inhibition,"MM.1R, 0.25 µM",1%
same,target mRNA inhibition,"MM.1R, 0.666 µM",-4%
same,target mRNA inhibition,"MM.1R, 1 µM",6%
same,target mRNA inhibition,"MM.1R, 2 µM",9%
same,target mRNA inhibition,"MM.1R, 4 µM",36%
same,target mRNA inhibition,"SK-MEL-28, 4 µM",71%
"ACTGGATCTGAATTGT (sugars k3 d10 k3, PS)",target mRNA inhibition,"SK-MEL-28, 4 µM",57%
"CATGGCAGTGGAGCTC (sugars k3 d10 k3, PS)",target mRNA inhibition,"SK-MEL-28, 4 µM",87% and 82%
"AGTGAGATGCGGAGGT (sugars k3 d10 k3, PS)",target mRNA inhibition,"MM.1R, 1 µM",65%
"TTCTTTATGCGAAGAA (sugars k3 d10 k3, PS)",target mRNA inhibition,"SK-MEL-28, 4 µM",9%
"GACTCCGGGAGCCTGG (sugars k3 d10 k3, PS)",target mRNA inhibition,"SK-MEL-28, 4 µM",65%
"CTGAACTGAAATCTCC (sugars k3 d10 k3, PS)",target mRNA inhibition,"SK-MEL-28, 4 µM",64% and 63%
"AGAAGTACGAGCACAT (sugars k3 d10 k3, PS)",target mRNA inhibition,"SK-MEL-28, 4 µM",44%
"TATACATTGAGGCATA (sugars k3 d10 k3, PS)",target mRNA inhibition,"MM.1R, 1 µM",7%
"GATATTAGAGACTGTA (sugars k3 d10 k3, PS)",target mRNA inhibition,"SK-MEL-28, 4 µM",51%
"CATCGAACTCCTGAGT (sugars k3 d10 k3, PS)",target mRNA inhibition,"SK-MEL-28, 4 µM",31%
"CTGGAGTGAACCCTTC (sugars k3 d10 k3, PS)",target mRNA inhibition,"SK-MEL-28, 4 µM",56%
"TCATACCCTGGATCAC (sugars k3 d10 k3, PS)",target mRNA inhibition,"SK-MEL-28, 4 µM",43%
"AAGCATTTTATCATCC (sugars kkdddddddddkdkdk, PS)",target mRNA inhibition,"MM.1R, 1 µM",3%
"AAGCGAGTCAGACAGT (sugars k3 d10 k3, PS)",target mRNA inhibition,"MM.1R, 1 µM",-22%
"ATGTGATAGCTGAGCT (sugars k3 d10 k3, PS)",target mRNA inhibition,"MM.1R, 1 µM",26%
"TGTGTATTACTCTTAG (sugars kddddddddddkekek, PS)",target mRNA inhibition,"MM.1R, 1 µM",58% and 56%
"GCAAAGCCACCCTTCC (sugars k3 d10 k3, PS)",target mRNA inhibition,"SK-MEL-28, 4 µM",60%
"ATATTCCAACAGGCGG (sugars k3 d10 k3, PS)",target mRNA inhibition,"SK-MEL-28, 4 µM",53%
"GTATTACTCTTAGGCA (sugars k3 d10 k3, PS)",target mRNA inhibition,"MM.1R, 0.0625 µM",13%
same,target mRNA inhibition,"MM.1R, 0.074 µM",15%
same,target mRNA inhibition,"MM.1R, 0.222 µM",7%
same,target mRNA inhibition,"MM.1R, 0.25 µM",24%
same,target mRNA inhibition,"MM.1R, 0.666 µM",21%
same,target mRNA inhibition,"MM.1R, 1 µM",41%
same,target mRNA inhibition,"MM.1R, 2 µM",51%
same,target mRNA inhibition,"MM.1R, 4 µM",69%
same,target mRNA inhibition,"SK-MEL-28, 4 µM",64%
"GCTCATGGCTGATAAT (sugars k3 d10 k3, PS)",target mRNA inhibition,"MM.1R, 1 µM",-17%
"ATAGGAAGTTTACTAA (sugars k3 d10 k3, PS)",target mRNA inhibition,"SK-MEL-28, 4 µM",13%
"AAGGTCTGAGAGCCTT (sugars k3 d10 k3, PS)",target mRNA inhibition,"SK-MEL-28, 4 µM",17%
"GAAAATCTGGATGAGC (sugars k3 d10 k3, PS)",target mRNA inhibition,"MM.1R, 0.0625 µM",7%
same,target mRNA inhibition,"MM.1R, 0.074 µM",11%
same,target mRNA inhibition,"MM.1R, 0.222 µM",-1%
same,target mRNA inhibition,"MM.1R, 0.25 µM",8%
same,target mRNA inhibition,"MM.1R, 0.666 µM",-26%
same,target mRNA inhibition,"MM.1R, 1 µM",22%
same,target mRNA inhibition,"MM.1R, 4 µM",59%
same,target mRNA inhibition,"SK-MEL-28, 4 µM",64%
"GAACAATCCTGTACAC (sugars k3 d10 k3, PS)",target mRNA inhibition,"SK-MEL-28, 4 µM",-5%
"AGCCGAAGCATTTTAT (sugars k3 d10 k3, PS)",target mRNA inhibition,"SK-MEL-28, 4 µM",44%
"TGCCTGAACTGTGTAA (sugars k3 d10 k3, PS)",target mRNA inhibition,"SK-MEL-28, 4 µM",35%
"CATAAAGGACCCCGCC (sugars k3 d10 k3, PS)",target mRNA inhibition,"MM.1R, 1 µM",-5%
"GCAGTGATGTCAGGTT (sugars k2 d9 e3 k2, PS)",target mRNA inhibition,"MM.1R, 0.074 µM",20%
same,target mRNA inhibition,"MM.1R, 0.222 µM",48%
same,target mRNA inhibition,"MM.1R, 0.666 µM",73%
same,target mRNA inhibition,"MM.1R, 1 µM",81%
same,target mRNA inhibition,"MM.1R, 2 µM",91%
"TTTATGTTAGCCAATT (sugars k3 d10 k3, PS)",target mRNA inhibition,"MM.1R, 1 µM",25% and 13%
"CTGCATTTGCAAATAA (sugars k4 d8 k4, PS)",target mRNA inhibition,"SK-MEL-28, 4 µM",-8%
"TCTTACAGCAATCTTA (sugars k3 d10 k3, PS)",target mRNA inhibition,"SK-MEL-28, 4 µM",32%
"CGCGCAAAGGGCAAGG (sugars k3 d10 k3, PS)",target mRNA inhibition,"SK-MEL-28, 4 µM",34%
"TCCCGGAGGAAGTCCC (sugars k3 d10 k3, PS)",target mRNA inhibition,"SK-MEL-28, 4 µM",30%
"GGACCTGGTCCAGGTT (sugars k3 d10 k3, PS)",target mRNA inhibition,"SK-MEL-28, 4 µM",-2%
"TTCAGAGTCCTGAGAC (sugars k3 d10 k3, PS)",target mRNA inhibition,"SK-MEL-28, 4 µM",46%
"CTGTTAGCTACAAAGA (sugars k3 d10 k3, PS)",target mRNA inhibition,"SK-MEL-28, 4 µM",56%
"GCCCGCAAAAGAAACG (sugars k3 d10 k3, PS)",target mRNA inhibition,"MM.1R, 1 µM",2%
"GTAAAGGAGTGCAGGA (sugars k3 d10 k3, PS)",target mRNA inhibition,"SK-MEL-28, 4 µM",9%
"TCTCCCACACCAGCCC (sugars k3 d10 k3, PS)",target mRNA inhibition,"SK-MEL-28, 4 µM",6%
"GGGATTATATACTGGT (sugars kkdddddddddekeke, PS)",target mRNA inhibition,"MM.1R, 1 µM",34%
"CGGTAGAGTGAGATGC (sugars k3 d10 k3, PS)",target mRNA inhibition,"SK-MEL-28, 4 µM",54%
"TCCCATCGAATCTGCC (sugars k3 d10 k3, PS)",target mRNA inhibition,"MM.1R, 1 µM",-5%
"GTCATGGGACATTGGT (sugars k3 d10 k3, PS)",target mRNA inhibition,"MM.1R, 1 µM",26%
"CACCATTCAGACAGAT (sugars k3 d10 k3, PS)",target mRNA inhibition,"SK-MEL-28, 4 µM",-67%
"GCATTTTATCATCCGA (sugars kdddddddddkekeke, PS)",target mRNA inhibition,"MM.1R, 1 µM",23%
"AGGGAATCCCTTATTA (sugars k3 d10 k3, PS)",target mRNA inhibition,"SK-MEL-28, 4 µM",6%
"AGTATGAGAAACGGCC (sugars kkdddddddddkdkdk, PS)",target mRNA inhibition,"MM.1R, 1 µM",6%
"CGGGAGATAAAGAACA (sugars k3 d10 k3, PS)",target mRNA inhibition,"SK-MEL-28, 4 µM",31%
"CACTCAGCAAGTGTCT (sugars k3 d10 k3, PS)",target mRNA inhibition,"SK-MEL-28, 4 µM",50%
"CTCTATAGTGTTCCAG (sugars k3 d9 k3 e1, PS)",target mRNA inhibition,"MM.1R, 0.074 µM",14%
same,target mRNA inhibition,"MM.1R, 0.222 µM",30%
same,target mRNA inhibition,"MM.1R, 0.666 µM",54%
same,target mRNA inhibition,"MM.1R, 1 µM",65%
same,target mRNA inhibition,"MM.1R, 2 µM",76%
"GGCTCTGCAAACGACA (sugars k3 d10 k3, PS)",target mRNA inhibition,"MM.1R, 1 µM",0%
"ATGCTTGGCTCTGTGG (sugars k3 d10 k3, PS)",target mRNA inhibition,"SK-MEL-28, 4 µM",76%
"AGGCACATCAATGTTT (sugars kddddddddddkekek, PS)",target mRNA inhibition,"MM.1R, 1 µM",5%
"CCAGAGCAGTAAACGC (sugars k3 d10 k3, PS)",target mRNA inhibition,"MM.1R, 1 µM",11%
"CAAAACGGACTGGAAC (sugars k3 d10 k3, PS)",target mRNA inhibition,"SK-MEL-28, 4 µM",16%
"ACCAGAATTGCAAGAG (sugars k3 d10 k3, PS)",target mRNA inhibition,"SK-MEL-28, 4 µM",60%
"ATGTTAGCCAATTCCT (sugars kkdddddddddekeke, PS)",target mRNA inhibition,"MM.1R, 1 µM",27% and 30%
"GGAAGTTTACACTGGA (sugars kddddddddddkekek, PS)",target mRNA inhibition,"MM.1R, 1 µM",33%
"CTTGATAAAGGCTGAA (sugars kkkddddddddkekek, PS)",target mRNA inhibition,"MM.1R, 1 µM",12%
"TGTCAAAGAGCTTGCA (sugars k3 d10 k3, PS)",target mRNA inhibition,"SK-MEL-28, 4 µM",11%
"CATTGCTAGATTCTCC (sugars k3 d10 k3, PS)",target mRNA inhibition,"MM.1R, 1 µM",18% and 30%
